From patent US11046699B2, “Pyrazolo-pyrimidin-amino-cycloalkyl compounds and their therapeutic uses” (RAPT THERAPEUTICS, INC., priority 2018, dated 2021)
pIC50: −log10 of the molar value.

target: GCN2 (Homo sapiens, UniProt Q9P2K8); assay: GCN2 enzymatic endpoint assay: phosphorylation of GFP-eIF2α measured by TR-FRET (Lanthascreen); assay type: biochemical; settings: GCN2 biochemical IC50; 4 nM GCN2, 2 μM ATP, 80 nM GFP-eIF2α, 90 min RT; read-out: GCN2 activity
In short: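 Endpoint kinase reaction with 2 μM ATP and 80 nM GFP-labelled eIF2α substrate, run at room temperature for 90 min, then stopped with EDTA. Phospho-substrate detected by terbium-antibody TR-FRET, activity taken as the 520/495 nm emission ratio.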

Sequence of GCN2 (Q9P2K8 whole entry): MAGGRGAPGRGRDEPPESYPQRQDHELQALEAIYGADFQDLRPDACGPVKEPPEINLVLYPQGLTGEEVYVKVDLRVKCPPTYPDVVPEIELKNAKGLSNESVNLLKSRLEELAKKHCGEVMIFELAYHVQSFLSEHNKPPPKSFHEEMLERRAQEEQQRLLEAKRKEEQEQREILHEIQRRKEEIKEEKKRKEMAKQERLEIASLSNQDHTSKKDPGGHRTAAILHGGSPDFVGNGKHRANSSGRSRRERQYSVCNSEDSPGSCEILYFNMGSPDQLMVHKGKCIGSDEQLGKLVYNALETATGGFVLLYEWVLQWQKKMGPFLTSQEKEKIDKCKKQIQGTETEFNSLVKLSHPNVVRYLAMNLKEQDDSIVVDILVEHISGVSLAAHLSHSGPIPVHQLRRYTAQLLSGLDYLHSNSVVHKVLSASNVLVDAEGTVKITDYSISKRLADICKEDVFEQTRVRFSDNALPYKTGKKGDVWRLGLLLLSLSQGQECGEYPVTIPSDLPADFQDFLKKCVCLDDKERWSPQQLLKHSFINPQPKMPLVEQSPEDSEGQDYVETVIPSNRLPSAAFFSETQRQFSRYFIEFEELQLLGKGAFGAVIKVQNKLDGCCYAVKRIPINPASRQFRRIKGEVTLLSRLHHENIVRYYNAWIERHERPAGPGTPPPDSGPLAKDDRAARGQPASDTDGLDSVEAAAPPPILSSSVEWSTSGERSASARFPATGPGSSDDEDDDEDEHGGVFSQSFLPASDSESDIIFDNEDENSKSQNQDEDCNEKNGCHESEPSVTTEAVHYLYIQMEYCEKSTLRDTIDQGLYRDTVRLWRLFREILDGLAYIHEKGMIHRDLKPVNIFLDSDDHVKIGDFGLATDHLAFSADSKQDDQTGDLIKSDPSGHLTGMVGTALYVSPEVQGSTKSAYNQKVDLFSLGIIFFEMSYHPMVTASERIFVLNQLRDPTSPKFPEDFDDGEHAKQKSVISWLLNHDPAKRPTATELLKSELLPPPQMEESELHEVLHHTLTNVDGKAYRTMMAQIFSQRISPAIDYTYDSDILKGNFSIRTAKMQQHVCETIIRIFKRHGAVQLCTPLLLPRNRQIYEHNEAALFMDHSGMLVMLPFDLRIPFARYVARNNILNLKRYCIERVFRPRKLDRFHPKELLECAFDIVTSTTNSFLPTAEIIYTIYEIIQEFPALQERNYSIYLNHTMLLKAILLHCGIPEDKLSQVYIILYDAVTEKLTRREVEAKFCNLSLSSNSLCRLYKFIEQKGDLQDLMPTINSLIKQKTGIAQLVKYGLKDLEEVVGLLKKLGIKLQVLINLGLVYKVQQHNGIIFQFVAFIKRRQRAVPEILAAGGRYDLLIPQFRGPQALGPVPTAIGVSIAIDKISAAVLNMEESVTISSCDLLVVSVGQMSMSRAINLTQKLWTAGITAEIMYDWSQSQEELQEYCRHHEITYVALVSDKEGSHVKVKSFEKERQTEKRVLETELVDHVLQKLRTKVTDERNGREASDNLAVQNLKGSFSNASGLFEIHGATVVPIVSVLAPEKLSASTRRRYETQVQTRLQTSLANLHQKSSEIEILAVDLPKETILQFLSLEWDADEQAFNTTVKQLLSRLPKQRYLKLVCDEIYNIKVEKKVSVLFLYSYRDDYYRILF

Compared with `CNC(=O)[C@]1(C)CC[C@@H](Nc2ncc3c(Br)nn(-c4ccc5ncn(C)c(=O)c5c4)c3n2)C1` [Example 72, (1R,3R)-3-((3-bromo-1-(3-methyl-4-oxo-3,4-dihydroquinazolin-6-yl)-1H-pyrazolo[3,4-d]pyrimidin-6-yl)amino)-N,1-dimethylcyclopentane-1-carboxamide], `CN1CCN(C(=O)[C@@H]2CC[C@@H](Nc3ncc4c(Br)nn(-c5ccc(N6CCOCC6)c(C#N)c5)c4n3)C2)CC1=O` [Example 9, 5-(3-bromo-6-(((1R,3R)-3-(4-methyl-3-oxopiperazine-1-carbonyl)cyclopentyl)amino)-1H-pyrazolo[3,4-d]pyrimidin-1-yl)-2-morpholinobenzonitrile] is lower in pIC50: 6.70 to 7.60 for the first, 6.30 to 6.70 for the second.

same assay, conditions: tested as described in Example 77; compound and/or hydrochloride, dihydrochloride or trifluoroacetic acid salt; read-out: IC 50 Activity

First: CN1C(=O)CCC1CNC(=O)[C@@H]1CC[C@@H](Nc2ncc3c(Br)nn(-c4cc(C#N)c5ncccc5c4)c3n2)C1 (some centres unmarked)
Second: CC1(CNC(=O)[C@@H]2CC[C@@H](Nc3ncc4c(Br)nn(-c5cc(F)c6ncccc6c5)c4n3)C2)COC1 [(1R,3R)-3-((3-bromo-1-(8-fluoroquinolin-6-yl)-1H-pyrazolo[3,4-d]pyrimidin-6-yl)amino)-N-((3-methyloxetan-3-yl)methyl)cyclopentane-1-carboxamide]
The pIC50 of the first is higher: > 7.60 for the first, 6.70 to 7.60 for the second. The first is the more potent here.

`CNC(=O)[C@]1(C)CC[C@@H](Nc2ncc3c(Br)nn(-c4cc(Cl)cc(C(=O)N5CCNCC5)c4)c3n2)C1` [(1R,3R)-3-[[3-bromo-1-[3-chloro-5-(piperazine-1-carbonyl)phenyl]pyrazolo [3,4-d]pyrimidin-6-yl]amino]-N,1-dimethyl-cyclopentanecarboxamide] and `C[C@H](N)c1cc(Cl)cc(-n2nc(Br)c3cnc(N[C@@H]4CC[C@@](C)(C(=O)N5CCNCC5)C4)nc32)c1` [[(1R,3R)-3-[[1-[3-[(1S)-1-aminoethyl]-5-chloro-phenyl]-3-bromo-pyrazolo [3,4-d]pyrimidin-6-yl]amino]-1-methyl-cyclopentyl]-piperazin-1-yl-methanone] fall in the same range of pIC50: 6.70 to 7.60 for the first, 6.70 to 7.60 for the second.

First: CNC(=O)[C@]1(C)CC[C@@H](Nc2ncc3c(Br)nn(-c4ccc5nc(N)ncc5c4)c3n2)C1
Second: CNC(=O)[C@]1(C)CC[C@@H](Nc2ncc3c(Br)nn(-c4ccc5ncc(NC(=O)C6CNC6)cc5c4)c3n2)C1 [N-[6-[3-bromo-6-[[(1R,3R)-3-methyl-3-(methylcarbamoyl)cyclopentyl]amino]pyrazolo[3,4-d]pyrimidin-1-yl]-3-quinolyl]azetidine-3-carboxamide]
The pIC50 of the first is lower: 6.70 to 7.60 for the first, > 7.60 for the second.

`CNC(=O)[C@]1(C)CC[C@@H](Nc2ncc3c(Br)nn(-c4ccc(-c5nnc(CCOC)s5)cc4)c3n2)C1` and `CNC(=O)[C@]1(C)CC[C@@H](Nc2ncc3c(Br)nn(-c4ccc(-c5ncc(C)[nH]5)cc4)c3n2)C1` [(1R,3R)-3-[[3-bromo-1-[4-(5-methyl-1H-imidazol-2-yl)phenyl]pyrazolo[3,4-d]pyrimidin-6-yl]amino]-N,1-dimethyl-cyclopentanecarboxamide] fall in the same range of pIC50: 6.70 to 7.60 for the first, 6.70 to 7.60 for the second.

`CNC(=O)[C@]1(C)CC[C@@H](Nc2ncc3c(Br)nn(-c4cc([C@H](C)N)c5nccnc5c4)c3n2)C1` [(1R,3R)-3-[[1-[8-[(1S)-1-aminoethyl]quinoxalin-6-yl]-3-bromo-pyrazolo [3,4-d]pyrimidin-6-yl]amino]-N,1-dimethyl-cyclopentanecarboxamide] and `CNC(=O)[C@]1(C)CC[C@@H](Nc2ncc3c(Br)nn(-c4cc(C(C)O)c5nccnc5c4)c3n2)C1` (stereo partly drawn) [(1R,3R)-3-[[3-bromo-1-[8-(1-hydroxy-ethyl)quinoxalin-6-yl]pyrazolo[3,4-d]pyrimidin-6-yl]amino]-N,1-dimethyl-cyclopentanecarboxamide] fall in the same range of pIC50: 6.70 to 7.60 for the first, 6.70 to 7.60 for the second.

`CNC(=O)[C@]1(C)CC[C@@H](Nc2ncc3c(Br)nn(-c4cc(F)c5c(c4)CCO5)c3n2)C1` [(1R,3R)-3-[[3-bromo-1-(7-fluoro-2,3-dihydro-benzofuran-5-yl)pyrazolo[3,4-d]pyrimidin-6-yl]amino]-N,1-dimethyl-cyclopentane-carboxamide] and `CNC(=O)[C@]1(C)CC[C@@H](Nc2ncc3c(Br)nn(-c4cc(Cl)c(F)c(CN)c4)c3n2)C1` fall in the same range of pIC50: 6.70 to 7.60 for the first, 6.70 to 7.60 for the second.

`CNC(=O)[C@]1(C)CC[C@@H](Nc2ncc3c(Br)nn(-c4cc(CN5C(=O)CCC5=O)c5ncccc5c4)c3n2)C1` [(1R,3R)-3-[[3-bromo-1-[8-[(2,5-dioxo-pyrrolidin-1-yl)methyl]-6-quinolyl]pyrazolo[3,4-d]pyrimidin-6-yl]amino]-N,1-dimethyl-cyclopentanecarboxamide] and `CNC(=O)[C@]1(C)CC[C@@H](Nc2ncc3c(Br)nn(-c4cc(COC)c5ncccc5c4)c3n2)C1` [(1R,3R)-3-[[3-bromo-1-[8-(methoxymethyl)-6-quinolyl]pyrazolo[3,4-d]pyrimidin-6-yl]amino]-N,1-dimethyl-cyclopentane-carboxamide] fall in the same range of pIC50: 6.70 to 7.60 for the first, 6.70 to 7.60 for the second.

Compared with `O=C([C@@H]1CC[C@@H](Nc2ncc3c(Br)nn(-c4cc(F)c5ncccc5c4)c3n2)C1)N1CCC2(CNC2)C(F)(F)C1` [[(1R,3R)-3-[[3-bromo-1-(8-fluoro-6-quinolyl)pyrazolo[3,4-d]pyrimidin-6-yl]amino]cyclo-pentyl]-(5,5-difluoro-2,7-diazaspiro[3.5]nonan-7-yl)methanone], `CN(C)C(=O)C1(NC(=O)[C@@H]2CC[C@@H](Nc3ncc4c(Br)nn(-c5cc(F)c6ncccc6c5)c4n3)C2)CC1` [(1R,3R)-3-[[3-bromo-1-(8-fluoro-6-quinolyl)pyrazolo[3,4-d]pyrimidin-6-yl]amino]-N-[1-(dimethylcarbamoyl)cyclopropyl]cyclo-pentanecarboxamide] is lower in pIC50: > 7.60 for the first, 6.70 to 7.60 for the second.

`CC1(C(=O)NCC(F)F)CC[C@@H](Nc2ncc3c(Br)nn(-c4cc(F)c5ncccc5c4)c3n2)C1` (stereo partly drawn) [(3R)-3-[[3-bromo-1-(8-fluoro-6-quinolyl)pyrazolo[3,4-d]pyrimidin-6-yl]amino]-N-(2,2-difluoroethyl)-1-methyl-cyclopentane-carboxamide] and `CNC(=O)[C@]1(C)CC[C@@H](Nc2ncc3c(Br)nn(-c4cc(F)c5nc(C)cc(Cl)c5c4)c3n2)C1` [(1R,3R)-3-[[3-bromo-1-(4-chloro-8-fluoro-2-methyl-6-quinolyl)pyrazolo[3,4-d]pyrimidin-6-yl]amino]-N,1-dimethyl-cyclopentanecarboxamide] fall in the same range of pIC50: 6.70 to 7.60 for the first, 6.70 to 7.60 for the second.

`Cc1nnc(-c2ccc(-n3nc(Br)c4cnc(N[C@@H]5CC[C@@H](NC(=O)C(C)C)C5)nc43)cc2)s1` [N-[(1R,3R)-3-[[3-bromo-1-[4-(5-methyl-1,3,4-thiadiazol-2-yl)phenyl]pyrazolo [3,4-d]pyrimidin-6-yl]amino]cyclopentyl]-2-methyl-propanamide] and `Cc1nnc(-c2ccc(-n3nc(Br)c4cnc(N[C@@H]5CC[C@@](C)(C(=O)NC6CC6)C5)nc43)cc2CCC#N)s1` [(1R,3R)-3-[[3-bromo-1-[3-(2-cyanoethyl)-4-(5-methyl-1,3,4-thiadiazol-2-yl)phenyl]pyrazolo[3,4-d]pyrimidin-6-yl]amino]-N-cyclopropyl-1-methyl-cyclopentane-carboxamide] fall in the same range of pIC50: 6.70 to 7.60 for the first, 6.70 to 7.60 for the second.

First: C[C@@H]1CN(C(=O)[C@@H]2CC[C@@H](Nc3ncc4c(Br)nn(-c5ccc6ncccc6c5)c4n3)C2)C[C@H](C)N1 [((1R,3R)-3-((3-bromo-1-(quinolin-6-yl)-1H-pyrazolo[3,4-d]pyrimidin-6-yl)amino)cyclo-pentyl)((3S,5R)-3,5-dimethylpiperazin-1-yl) methanone]
Second: COC[C@@H](C)NC(=O)[C@@H]1CCC[C@@H](Nc2ncc3c(Br)nn(-c4ccc5ncccc5c4)c3n2)C1 [(1R,3R)-3-((3-bromo-1-(quinolin-6-yl)-1H-pyrazolo[3,4-d]pyrimidin-6-yl)amino)-N-((R)-1-methoxypropan-2-yl)cyclohexane-1-carboxamide]
The pIC50 of the first is higher: 6.70 to 7.60 for the first, 6.00 to 6.30 for the second. The first is the more potent here.

`CNC(=O)[C@]1(C)CC[C@@H](Nc2ncc3c(Br)nn(-c4ccc(-c5nnc(C)s5)c(CCO)c4)c3n2)C1` [(1R,3R)-3-[[3-bromo-1-[3-(2-hydroxyethyl)-4-(5-methyl-1,3,4-thiadiazol-2-yl)phenyl]pyrazolo[3,4-d]pyrimidin-6-yl]amino]-N,1-dimethyl-cyclopentanecarboxamide] and `CNCCc1cc(-n2nc(Br)c3cnc(N[C@@H]4CC[C@@](C)(C(=O)NC)C4)nc32)ccc1-c1ncco1` [(1R,3R)-3-[[3-bromo-1-[3-[2-(methylamino)ethyl]-4-oxazol-2-yl-phenyl]pyrazolo[3,4-d]pyrimidin-6-yl]amino]-N,1-dimethyl-cyclopentanecarboxamide] fall in the same range of pIC50: 6.70 to 7.60 for the first, 6.70 to 7.60 for the second.

First: NCCc1cc(-n2nc(Br)c3cnc(NC4CC(O)C4)nc32)cc2cccnc12 (centres unmarked) [3-[[1-[8-(2-aminoethyl)-6-quinolyl]-3-bromo-pyrazolo[3,4-d]pyrimidin-6-yl]amino] cyclobutanol]
Second: CNC(=O)[C@@H]1CC[C@@H](Nc2ncc3c(I)nn(-c4cc(F)c5ncccc5c4)c3n2)C1 [(1R,3R)-3-[[1-(8-fluoro-6-quinolyl)-3-iodo-pyrazolo[3,4-d]pyrimidin-6-yl]amino]-N-methyl-cyclopentanecarboxamide]
The pIC50 of the first is lower: 6.70 to 7.60 for the first, > 7.60 for the second. The second is the more potent here.

`CNC(=O)[C@]1(C)CC[C@@H](Nc2ncc3c(Br)nn(-c4ccn5c(=O)ccnc5c4)c3n2)C1` [(1R,3R)-3-[[3-bromo-1-(4-oxopyrido[1,2-a]pyrimidin-8-yl)pyrazolo[3,4-d]pyrimidin-6-yl]amino]-N,1-dimethyl-cyclopentane-carboxamide] and `CNC(=O)[C@]1(C)CC[C@@H](Nc2ncc3c(Br)nn(-c4ccc5c(c4)C(C)(C)CO5)c3n2)C1` [(1R,3R)-3-[[3-bromo-1-(3,3-dimethyl-2H-benzofuran-5-yl)pyrazolo[3,4-d]pyrimidin-6-yl]amino]-N,1-dimethyl-cyclopentane-carboxamide] fall in the same range of pIC50: 6.70 to 7.60 for the first, 6.70 to 7.60 for the second.

`CNC(=O)[C@]1(C)CC[C@@H](Nc2ncc3c(Br)nn(-c4cc(Cl)c(F)c(CNS(C)(=O)=O)c4)c3n2)C1` and `O=C(NCCn1ccnc1)[C@@H]1CC[C@@H](Nc2ncc3c(Br)nn(-c4ccc5ncccc5c4)c3n2)C1` [(1R,3R)-N-(2-(1H-imidazol-1-yl)ethyl)-3-((3-bromo-1-(quinolin-6-yl)-1H-pyrazolo[3,4-d]pyrimidin-6-yl)amino)cyclopentane-1-carboxamide] fall in the same range of pIC50: 6.70 to 7.60 for the first, 6.70 to 7.60 for the second.
